Measured values reported in ChEMBL document CHEMBL3822446, “Synthesis of 1H-pyrrolo[3,2-h]quinoline-8-amine derivatives that target CTG trinucleotide repeats” (Bioorg Med Chem Lett, 2016).
Each block holds one compound with its values, some of them ahead of it. Active and inactive are the calls of the source. The rule behind the calls is not given here.

How the values were obtained:
[1] = Binding affinity to duplex DNA dT bulge (unknown origin) assessed as change in melting point at 50 uM by UV-Vis spectrophotometric analysis
[2] = Binding affinity to 5'-Biotinylated DNA d(CTG)9-3' (unknown origin) assessed as red shifting of abosrption band at 349 nm at 10 uM by UV-spectrophotometric analysis
[3] = Binding affinity to full match duplex DNA (unknown origin) assessed as change in melting point at 50 uM by UV-Vis spectrophotometric analysis
[4] = Binding affinity to duplex DNA dA bulge (unknown origin) assessed as change in melting point at 50 uM by UV-Vis spectrophotometric analysis
[5] = Binding affinity to duplex DNA dG bulge (unknown origin) assessed as change in melting point at 50 uM by UV-Vis spectrophotometric analysis
[6] = Binding affinity to duplex DNA dC bulge (unknown origin) assessed as change in melting point at 50 uM by UV-Vis spectrophotometric analysis
[7] = Binding affinity to 5'-Biotinylated DNA d(CAG)9-3' (unknown origin) at 0.63 to 10 uM after 120 sec by SPR assay
[8] = Binding affinity to 5'-Biotinylated DNA d(CGG)9-3' (unknown origin) at 0.63 to 10 uM after 120 sec by SPR assay
[9] = Binding affinity to 5'-biotinylated DNA d(CTG)9-3' (unknown origin) after 120 sec by SPR assay; details: read-out: Kd(app)
[10] = Binding affinity to 5'-Biotinylated DNA d(CTG)9-3' (unknown origin) by isothermal titration calorimetry
[11] = Binding affinity to 5'-Biotinylated DNA d(CCG)9-3' (unknown origin) after 120 sec by SPR assay; details: read-out: Kd(app)

SMILES: NCCCNC(=O)Nc1ccc2ccccc2n1
ΔTm [1]: 1.3 °C

SMILES: Nc1cccc(N)n1
Activity [2]: inactive

SMILES: NCCCNC(=O)Nc1ccc2ccc3cc[nH]c3c2n1
Activity [7]: inactive
ΔTm [1]: 5.2 °C
Activity [8]: inactive
ΔTm [3]: 0.8 °C
ΔTm [4]: 1.4 °C
Activity [2]: 8 nm
Kd [9]: 20 µM
Kd [10]: 17 µM
ΔTm [5]: 1 °C
Kd [11]: 33 µM
ΔTm [6]: 5.8 °C

SMILES: NCCC(=O)Nc1ccc2ccccc2n1
ΔTm [1]: 0.3 °C

Now from value to compound:

ΔTm [1]: 2.9 °C
SMILES: NCC(=O)Nc1ccc2ccc3cc[nH]c3c2n1

ΔTm [1]: 3.6 °C
SMILES: NCCCC(=O)Nc1ccc2ccc3cc[nH]c3c2n1

ΔTm [1]: 4.7 °C
ΔTm [3]: 0.9 °C
ΔTm [4]: 1.7 °C
ΔTm [5]: 1.7 °C
ΔTm [6]: 3.5 °C
SMILES: NCCC(=O)Nc1ccc2ccc3cc[nH]c3c2n1

ΔTm [1]: 2.6 °C
SMILES: NCCCCC(=O)Nc1ccc2ccc3cc[nH]c3c2n1
